pIC50: −log10 of the molar value. Like-named read-outs stand apart in the source and are kept apart here.
Tests used:
[1] = target: recombinant human cathepsin S (Homo sapiens, UniProt P25774); assay: Cathepsin S enzyme activity assay; format: biochemical; conditions: 10 uM Z-Leu-Arg-AMC, pH 4.5, 25° C.
Description: The cysteine protease inhibitor E-64 is assayed in parallel as a positive control.
Human recombinant cathepsin S is incubated with compounds or vehicle (final concentration=1% DMSO vehicle) in the presence of peptide substrate which is 10 uM Z-Leu-Arg-AMC. Compounds are preincubated with the enzyme for 15 minutes at 25° C. and the reaction started by the addition of substrate. Incubation with substrate proceeds for 30 minutes at 25° C. Incubation buffer is 20 mM CH3COONa, pH 4.5, 2.5 mM DTT, 0.05 M NaCl. Cathepsin S-mediated substrate cleavage is quantified using spectofluorimetric quantitation of AMC.

[2] = test system: HCV replicon-containing cells (Huh7/Clone A); assay: HCV replicon assay; format: cell-based, Hepatitis C virus; conditions: at 25 μM, 48 hours
From the text: The HCV replicon assay is a cell-culture system that mimics in vivo HCV replication and provides a system to study HCV replication in vitro. It was created by transfecting cloned viral RNA derived from a consensus HCV genomic sequence into human Huh7 hepatoma cells that are semi-permissive for viral RNA production (Lohmann V., Korner F., Koch J.-O., Herian U., Theilmann L. and Bartenschlager R. (1999). Replication of subgenomic Hepatitis C virus RNAs in a hepatoma cell line. Science 285, 110-113 and Blight K. J., Kolykhalov A. A. and Rice C. M. (2000). Efficient initiation of HCV RNA Replication in cell culture. Science 290, […]). These transfected cell lines contain a subgenomic HCV RNA genome that includes (1) the HCV 5′NTR fused to 12 amino acids of the capsid coding region, (2) the neomycin phosphotransferase gene (Neo) as a selectable marker, (3) the internal ribosome entry site (IRES) from encephalomyocarditis virus (EMCV) that directs translation of HCV non-structural proteins (variously NS2 or NS3 to NS5B), and (4) the 3′ NTR. Replicon-containing cells autonomously and persistently replicate HCV RNA that can be measured quantitatively by real-time qPCR. Therefore, the replicon system facilitates quantitative assessment of anti-viral activity by monitoring changes in HCV RNA replication in a cell-based assay.
HCV replicon-containing cells (Huh7/Clone A) were routinely maintained in Clone A growth medium (DMEM medium [Invitrogen], supplemented with 10% Fetal Bovine Serum, 1% Non Essential Amino Acids and 1 g/L G418). Test compounds were dissolved in dimethylsulfoxide (DMSO) to make 200× stock solutions for all doses prior to treatment.
For the HCV replicon assay, Huh7/Clone A cells were trypsinized from culture flasks, seeded in 1 ml of Clone A growth medium without G418 at 4×10^4 cells per well in 24-well plates and incubated at 37° C. in a humidified CO2 (5%) incubator overnight. Following overnight incubation, compound solutions were added into wells in the same volume (5 μl of 200× compound stock per well) to give a final DMSO concentration of 0.5%. Three wells on each plate supplemented with 5 μl of DMSO served as untreated controls. […]
Total RNA eluted in 130 μl of RNase-free dH2O was quantitated by the RiboGreen Assay according to the supplier's protocol (Molecular Probe). […] RNA samples in the black microplate were mixed with 95 μl of diluted RiboGreen reagent (1:250 dilution in TE buffer) and sample fluorescence was measured using a fluorescence microplate reader at standard fluorescein wavelengths (excitation ˜480 nm, emission ˜520 nm). […]
TaqMan quantitative PCR (RT-qPCR) was used to quantitate the amount of HCV replicon RNA in each sample. […]

[3] = recombinant human cathepsin S, read-out: Cathepsin S IC50
[4] = Cathepsin S IC50, recombinant human cathepsin S

Sequence of recombinant human cathepsin S (P25774 115-331): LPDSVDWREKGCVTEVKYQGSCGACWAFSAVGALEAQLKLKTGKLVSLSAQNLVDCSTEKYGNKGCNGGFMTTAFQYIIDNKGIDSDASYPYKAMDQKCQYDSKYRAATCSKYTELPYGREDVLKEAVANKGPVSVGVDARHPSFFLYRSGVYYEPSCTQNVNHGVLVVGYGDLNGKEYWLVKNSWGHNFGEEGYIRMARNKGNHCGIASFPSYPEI

pIC50 [1, 3] | Structure (SMILES) | inhibition of HCV replicon RNA [2] | pIC50 [1, 4]
– | CCC[C@H](NC(=O)[C@@H]1[C@H]2CCC[C@H]2CN1C(=O)[C@@H](NC(C(NC(=O)c1cnccn1)C1CCCCC1)C(F)(F)F)C(C)(C)C)C(=O)C(=O)NC1CC1 (single isomer, unassigned) [Formula I isomer B] | 33% | 9.22
– | CCC[C@H](NC(=O)[C@@H]1[C@H]2CCC[C@H]2CN1C(=O)[C@@H](NC(C(NC(=O)c1cnccn1)C1CCCCC1)C(F)(F)F)C(C)(C)C)C(=O)C(=O)NC1CC1 (single isomer, unassigned) [Formula I isomer C] | 34% | 8.70
– | CCC[C@H](NC(=O)[C@@H]1[C@H]2CCC[C@H]2CN1C(=O)[C@@H](NC(C(NC(=O)c1cnccn1)C1CCCCC1)C(F)(F)F)C(C)(C)C)C(=O)C(=O)NC1CC1 (single isomer, unassigned) [Formula I isomer D] | 29% | 9.22
8.74 | CCC[C@H](NC(=O)[C@@H]1[C@H]2CCC[C@H]2CN1C(=O)[C@@H](NC(=O)[C@@H](NC(c1cnccn1)C(F)(F)F)C1CCCCC1)C(C)(C)C)C(=O)C(=O)NC1CC1 (single isomer, unassigned) [Formula I isomer E] | – | –
8.85 | CCC[C@H](NC(=O)[C@@H]1[C@H]2CCC[C@H]2CN1C(=O)[C@@H](NC(=O)[C@@H](NC(c1cnccn1)C(F)(F)F)C1CCCCC1)C(C)(C)C)C(=O)C(=O)NC1CC1 (single isomer, unassigned) [Formula I isomer F] | – | –

Structure (SMILES) | pIC50 [1, 3] | inhibition of HCV replicon RNA [2] | pIC50 [1, 4]
CCC[C@H](NC(=O)[C@@H]1[C@H]2CCC[C@H]2CN1C(=O)[C@@H](NC(C(NC(=O)c1cnccn1)C1CCCCC1)C(F)(F)F)C(C)(C)C)C(=O)C(=O)NC1CC1 (single isomer, unassigned) [Formula I isomer A] | 8.39 | 41% | –

— patent US8106059B2, “Substituted pyrazines that inhibit protease cathepsin S and HCV replication” (ViroBay, Inc., priority 2007, dated 2012)
